Results from patent US20120270884A1, “Methods of Treating Aneurysmal Dilatation, Blood Vessel Wall Weakness and Specifically Abdominal Aortic and Thoracic Aneurysm Using Matrix Metalloprotease-2 Inhibitors” (SYMPHONY EVOLUTION, INC., priority 2009, published 2012).
pIC50: −log10 of the molar value.

What was measured:
Format in all cases: biochemical
[1] = target: T1, MMP-2 (72 kDa gelatinase, gelatinase A) (Homo sapiens, UniProt P08253); test: In vitro metalloprotease inhibition, MMP-2
T1 sequence (P08253 110-660): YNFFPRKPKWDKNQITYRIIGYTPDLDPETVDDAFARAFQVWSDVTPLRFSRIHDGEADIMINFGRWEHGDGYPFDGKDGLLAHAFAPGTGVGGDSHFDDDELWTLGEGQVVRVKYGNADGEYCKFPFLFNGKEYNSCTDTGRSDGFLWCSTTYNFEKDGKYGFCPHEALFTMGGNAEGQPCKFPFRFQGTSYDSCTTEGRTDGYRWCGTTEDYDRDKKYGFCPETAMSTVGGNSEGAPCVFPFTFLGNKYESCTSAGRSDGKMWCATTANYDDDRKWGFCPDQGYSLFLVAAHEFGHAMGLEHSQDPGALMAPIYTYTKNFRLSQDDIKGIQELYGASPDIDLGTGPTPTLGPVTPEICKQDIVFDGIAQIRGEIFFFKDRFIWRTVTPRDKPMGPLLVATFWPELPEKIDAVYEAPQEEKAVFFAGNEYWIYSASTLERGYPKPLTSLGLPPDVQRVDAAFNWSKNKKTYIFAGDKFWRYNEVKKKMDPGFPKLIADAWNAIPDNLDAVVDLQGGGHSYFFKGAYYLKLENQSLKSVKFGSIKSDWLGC

MMP-3 (Stromelysin-1) = MMP-3 (Stromelysin-1) (Homo sapiens, UniProt P08254); test: In vitro metalloprotease inhibition, MMP-3
Sequence of MMP-3 (Stromelysin-1) (P08254 100-477, species assumed): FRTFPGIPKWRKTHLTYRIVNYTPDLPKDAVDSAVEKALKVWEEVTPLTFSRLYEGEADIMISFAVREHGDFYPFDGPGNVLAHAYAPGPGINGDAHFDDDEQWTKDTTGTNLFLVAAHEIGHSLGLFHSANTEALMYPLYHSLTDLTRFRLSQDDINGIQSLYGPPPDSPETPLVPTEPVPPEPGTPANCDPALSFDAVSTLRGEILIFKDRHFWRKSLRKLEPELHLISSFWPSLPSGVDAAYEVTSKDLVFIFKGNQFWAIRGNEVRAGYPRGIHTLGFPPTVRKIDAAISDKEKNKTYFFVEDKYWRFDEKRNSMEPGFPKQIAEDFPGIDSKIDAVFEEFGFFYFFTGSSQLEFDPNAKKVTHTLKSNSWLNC
Excerpt: (§1) Blank cells indicate lack of data only.

MMP-13 (collagenase-3) = MMP-13 (collagenase-3) (Homo sapiens, UniProt P45452); test: In vitro metalloprotease inhibition, MMP-13
[2] = target: T2, MMP-1 (Fibroblast collagenase) (Homo sapiens, UniProt P03956); test: In vitro metalloprotease inhibition, MMP-1
T2 sequence (P03956 100-469): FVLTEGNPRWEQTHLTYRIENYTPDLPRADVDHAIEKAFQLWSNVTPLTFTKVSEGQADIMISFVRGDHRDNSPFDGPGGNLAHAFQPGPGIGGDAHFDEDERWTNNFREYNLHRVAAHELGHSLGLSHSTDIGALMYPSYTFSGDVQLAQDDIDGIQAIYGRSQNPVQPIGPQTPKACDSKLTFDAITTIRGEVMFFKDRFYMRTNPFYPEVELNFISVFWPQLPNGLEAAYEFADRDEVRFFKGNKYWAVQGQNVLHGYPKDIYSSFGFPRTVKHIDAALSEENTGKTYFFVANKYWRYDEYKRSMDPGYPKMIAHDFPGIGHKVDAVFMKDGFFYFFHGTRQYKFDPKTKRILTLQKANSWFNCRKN
Excerpt: as §1

| pIC50 [1] | pIC50 (MMP-3 (Stromelysin-1)) | pIC50 (MMP-13 (collagenase-3)) | pIC50 [2] | Structure (SMILES) |
| --- | --- | --- | --- | --- |
| > 7.30 | 6.00 to 7.30 | > 7.30 | 6.00 to 7.30 | O=C(NO)[C@H]1CN(C(=O)N2CCOCC2)CCN1S(=O)(=O)c1ccc(-c2cccc(F)c2)nc1 [Entry 58] |
| > 7.30 | 6.00 to 7.30 | > 7.30 | < 4.70 | CN(C)c1ccc2c(S(=O)(=O)N3CCN(S(=O)(=O)c4cc(F)c(Oc5ccc(Cl)cc5)c(F)c4)[C@@H](C(=O)NO)C3)cccc2c1 [Entry 49] |
| > 7.30 | > 7.30 | > 7.30 | 6.00 to 7.30 | COCCOC(=O)N1CCN(S(=O)(=O)c2ccc(-c3cccc(F)c3)nc2)[C@@H](C(=O)NO)C1 [Entry 66] |
| > 7.30 | 4.70 to 6.00 | > 7.30 | 4.70 to 6.00 | O=C(NO)[C@H]1CN(C(=O)Cc2ccncc2)CCN1S(=O)(=O)c1cc(F)c(Oc2ccc(Cl)cc2)c(F)c1 [Entry 52] |
| > 7.30 | > 7.30 | > 7.30 | > 7.30 | COCCOC(=O)N1CCN(S(=O)(=O)c2ccc(Oc3ccc(F)cc3)nc2)[C@@H](C(=O)NO)C1 [Entry 65] |
| > 7.30 | 6.00 to 7.30 | > 7.30 | 6.00 to 7.30 | O=C(NO)[C@H]1CN(S(=O)(=O)CCN2CCCCC2)CCN1S(=O)(=O)c1cc(F)c(Oc2ccc(Cl)cc2)c(F)c1 [Entry 53] |
| 6.00 to 7.30 | 4.70 to 6.00 | 6.00 to 7.30 | < 4.70 | O=C(NO)[C@H]1CN(S(=O)(=O)CCN2CCOCC2)CCN1S(=O)(=O)c1cc(F)c(Oc2ccc(Cl)cc2)c(F)c1 [Entry 57] |
| 6.00 to 7.30 | 4.70 to 6.00 | 6.00 to 7.30 | 4.70 to 6.00 | O=C(NO)[C@H]1CN(C(=O)c2ccc(-c3ccccc3)cc2)CCN1S(=O)(=O)c1cc(F)c(Oc2ccc(Cl)cc2)c(F)c1 [Entry 51] |
| 4.70 to 6.00 | < 4.70 | 4.70 to 6.00 | < 4.70 | O=C(NO)[C@H]1CN(S(=O)(=O)Cc2cc(Cl)cc(Cl)c2)CCN1S(=O)(=O)c1cc(F)c(Oc2ccc(Cl)cc2)c(F)c1 [Entry 61] |
| > 7.30 | 6.00 to 7.30 | > 7.30 | 4.70 to 6.00 | CCOC(=O)N1CCN(CCS(=O)(=O)N2CCN(S(=O)(=O)c3cc(F)c(Oc4ccc(Cl)cc4)c(F)c3)[C@@H](C(=O)NO)C2)CC1 [Entry 56] |
| < 4.70 | 6.00 to 7.30 | > 7.30 | < 4.70 | CN(C)c1ccc2ccc(S(=O)(=O)N3CCN(S(=O)(=O)c4cc(F)c(Oc5ccc(Cl)cc5)c(F)c4)[C@@H](C(=O)NO)C3)cc2c1 [Entry 50] |
| > 7.30 | > 7.30 | > 7.30 | 6.00 to 7.30 | COCCOC(=O)N1CCN(S(=O)(=O)c2ccc(Oc3ccc4c(c3)CCCC4)nc2)[C@@H](C(=O)NO)C1 [Entry 64] |
| > 7.30 | 4.70 to 6.00 | > 7.30 | < 4.70 | CN(C)c1cccc2c(S(=O)(=O)N3CCN(S(=O)(=O)c4cc(F)c(Oc5ccc(Cl)cc5)c(F)c4)[C@@H](C(=O)NO)C3)cccc12 [Entry 60] |

Continued, compound first:

| Structure (SMILES) | pIC50 [1] | pIC50 (MMP-3 (Stromelysin-1)) | pIC50 (MMP-13 (collagenase-3)) | pIC50 [2] |
| --- | --- | --- | --- | --- |
| CCCCCCC(=O)N1CCN(S(=O)(=O)c2cc(F)c(Oc3ccc(Cl)cc3)c(F)c2)[C@@H](C(=O)NO)C1 [Entry 43] | > 7.30 | 6.00 to 7.30 | > 7.30 | < 4.70 |
| CN(C)S(=O)(=O)N1CCN(S(=O)(=O)c2cc(F)c(Oc3ccc(Cl)cc3)c(F)c2)[C@@H](C(=O)NO)C1 [Entry 36] | > 7.30 | 6.00 to 7.30 | > 7.30 | 4.70 to 6.00 |
| O=C(NO)[C@H]1CN(C(=O)Cc2cccnc2)CCN1S(=O)(=O)c1cc(F)c(Oc2ccc(Cl)cc2)c(F)c1 [Entry 47] | > 7.30 | 6.00 to 7.30 | > 7.30 | < 4.70 |
| O=C(NO)[C@H]1CN(C(=O)N2CCOCC2)CCN1S(=O)(=O)c1ccc(Oc2ccc(F)cc2)c(F)c1 [Entry 8] | > 7.30 | > 7.30 | > 7.30 | 6.00 to 7.30 |
| O=C(NO)[C@H]1CN(C(=O)N2CCOCC2)CCN1S(=O)(=O)c1ccc(Oc2ccc(Cl)cc2)c(F)c1 [Entry 6] | > 7.30 | > 7.30 | > 7.30 | 6.00 to 7.30 |
| CN1CCN(S(=O)(=O)c2cc(F)c(Oc3ccc(F)cc3)c(F)c2)[C@@H](C(=O)NO)C1 [Entry 14] | > 7.30 | < 4.70 | > 7.30 | < 4.70 |
| O=C(NO)[C@H]1CN(CC(=O)N2CCCC2)CCN1S(=O)(=O)c1cc(F)c(Oc2ccc(Cl)cc2)c(F)c1 [Entry 21] | > 7.30 | 4.70 to 6.00 | 6.00 to 7.30 | < 4.70 |
| O=C(NO)[C@H]1CN(S(=O)(=O)c2cccc3cnccc23)CCN1S(=O)(=O)c1cc(F)c(Oc2ccc(Cl)cc2)c(F)c1 [Entry 48] | > 7.30 | 6.00 to 7.30 | > 7.30 | < 4.70 |
| CCOC(=O)N1CCN(S(=O)(=O)c2cc(F)c(Oc3ccc(F)cc3)c(F)c2)[C@@H](C(=O)NO)C1 [Entry 13] | > 7.30 | 6.00 to 7.30 | > 7.30 | 4.70 to 6.00 |
| CN1CCN(C(=O)NS(=O)(=O)N2CCN(S(=O)(=O)c3cc(F)c(Oc4ccc(Cl)cc4)c(F)c3)[C@@H](C(=O)NO)C2)CC1 [Entry 39] | > 7.30 | > 7.30 | > 7.30 | 6.00 to 7.30 |
| COCCN1CCN(S(=O)(=O)c2cc(F)c(Oc3ccc(Cl)cc3)c(F)c2)[C@@H](C(=O)NO)C1 [Entry 29] | > 7.30 | 6.00 to 7.30 | > 7.30 | 4.70 to 6.00 |
| COCCOC(=O)N1CCN(S(=O)(=O)c2ccc(Oc3ccc(C#N)cc3)c(F)c2)[C@@H](C(=O)NO)C1 [Entry 5] | > 7.30 | 6.00 to 7.30 | > 7.30 | 6.00 to 7.30 |
| O=C(NO)[C@H]1CN(C(=O)OCCN2CCCCC2)CCN1S(=O)(=O)c1cc(F)c(Oc2ccc(Cl)cc2)c(F)c1 [Entry 27] | > 7.30 | 6.00 to 7.30 | > 7.30 | 4.70 to 6.00 |
| O=C(CN1CCOCC1)NC(=O)N1CCN(S(=O)(=O)c2cc(F)c(Oc3ccc(Cl)cc3)c(F)c2)[C@@H](C(=O)NO)C1 [Entry 46] | > 7.30 | 6.00 to 7.30 | > 7.30 | 4.70 to 6.00 |
| CNC(=O)CN1CCN(S(=O)(=O)c2cc(F)c(Oc3ccc(Cl)cc3)c(F)c2)[C@@H](C(=O)NO)C1 [Entry 19] | > 7.30 | 6.00 to 7.30 | > 7.30 | < 4.70 |
| O=C(NO)[C@H]1CN(C(=O)OCc2ccccc2)CCN1S(=O)(=O)c1cc(F)c(Oc2ccc(Cl)cc2)c(F)c1 [Entry 32] | > 7.30 | 6.00 to 7.30 | > 7.30 | 4.70 to 6.00 |
| O=C(NO)[C@H]1CN(C(=O)N2CCOCC2)CCN1S(=O)(=O)c1ccc(Oc2ccc(F)cc2)cc1 [Entry 2] | > 7.30 | > 7.30 | > 7.30 | > 7.30 |
| CS(=O)(=O)N1CCN(S(=O)(=O)c2cc(F)c(Oc3ccc(Cl)cc3)c(F)c2)[C@@H](C(=O)NO)C1 [Entry 28] | > 7.30 | 6.00 to 7.30 | > 7.30 | 6.00 to 7.30 |
| CN1CCC(OC(=O)N2CCN(S(=O)(=O)c3cc(F)c(Oc4ccc(Cl)cc4)c(F)c3)[C@@H](C(=O)NO)C2)CC1 [Entry 22] | > 7.30 | 6.00 to 7.30 | > 7.30 | 4.70 to 6.00 |
| COCCOC(=O)N1CCN(S(=O)(=O)c2cc(F)c(Oc3ccccc3)c(F)c2)[C@@H](C(=O)NO)C1 [Entry 40] | > 7.30 | 6.00 to 7.30 | > 7.30 | 4.70 to 6.00 |
| O=C(NO)[C@H]1CN(C(=O)N2CCOCC2)CCN1S(=O)(=O)c1cc(F)c(Oc2ccc(F)cc2)c(F)c1 [Entry 12] | > 7.30 | 6.00 to 7.30 | > 7.30 | 4.70 to 6.00 |
| O=C(CCl)NC(=O)N1CCN(S(=O)(=O)c2cc(F)c(Oc3ccc(Cl)cc3)c(F)c2)[C@@H](C(=O)NO)C1 [Entry 33] | > 7.30 | 6.00 to 7.30 | > 7.30 | 4.70 to 6.00 |
| CN1CCN(C(=O)N2CCN(S(=O)(=O)c3cc(F)c(Oc4ccc(Cl)cc4)c(F)c3)[C@@H](C(=O)NO)C2)CC1 [Entry 16] | > 7.30 | 4.70 to 6.00 | > 7.30 | < 4.70 |
| CC(C)(C)OC(=O)N1CCN(S(=O)(=O)c2cc(F)c(Oc3ccc(F)cc3)c(F)c2)[C@@H](C(=O)NO)C1 [Entry 9] | > 7.30 | 4.70 to 6.00 | 4.70 to 6.00 | 4.70 to 6.00 |
